Literature values in patent publication US20050004032A1, “Collagen mimics” (priority 2003, published 2005).

Tm, temperature at the midpoint of the thermal transition as measured by CD spectroscopy (literature values per Table 1 footnotes b-f, some reported for the 10-repeat peptides) | Substance | melting temperature of a triple helix (Sakakibara et al. 1973) [°C]
6-7^c ° C. | (ProProGly)7 | 
 | (ProProGly)10 | 24
